According to patent publication US20220273679A1, “METHODS AND COMPOSITIONS FOR TREATING AND PREVENTING DAMAGE TO SKIN” (New York Society for the Relief of the Ruptured and …, priority 2019, published 2022):

How the values were obtained:
WT mice = experiment: UVR-induced keratinocyte apoptosis and skin injury in WT mice treated topically before UVR; assay type: in vivo, mouse; conditions: 4 mM topically prior to UVR, FIGS. 12B-12E
[1] = system: Primary murine keratinocytes; experiment: Mouse keratinocyte-LC co-culture exposed to UVR (activated caspase-3+ keratinocytes); assay type: cell-based; conditions: keratinocytes pre-treated with 2 μM for 30 minutes before LC co-culture and UVR
Description: FIGS. 13A and 13B. Effect of human LCs on human keratinocytes without UVR and further characterization of in vitro LC-keratinocyte EGFR signaling (13A) Effect of human LCs on human keratinocytes without UVR. Primary human keratinocytes were co-cultured with or without human LCs and activated caspase-3+ keratinocytes were enumerated 24 hours later (n=3 human LC donors). Validation of siRNA-mediated EGFR knockdown in primary murine keratinocytes was performed. Keratinocytes were treated with control or EGFR-targeted siRNAs (#1 and #2) and EGFR expression was measured 5 days later (on the day of UVR exposure) by flow cytometry. […]
For immunofluorescence staining of cell culture experiments, polystyrene chamber slides (Lab-Tek) with cultured keratinocytes were washed with PBS, fixed with 4% paraformaldehyde for 20 minutes, permeabilized and blocked with Triton-X (0.2%) and BSA (1%), and stained as indicated. Activated caspase-3+ and total DAPI+ cells were quantified with ImageJ software by a blinded observer and the percent of activated caspase-3+ Langerin− cells (keratinocytes) and activated caspase-3+ Langerin+ cells (LCs) was calculated.
Primary mouse keratinocyte cultures were prepared from mouse tail skin as described (23). […] The co-cultures rested overnight and were then exposed to UVR and analyzed 24 hours later. […]

ADAM17 [2] = experiment: Ex vivo ADAM17 activity assay by TNFR1 cleavage, sorted murine LCs; assay type: cell-based, mouse; conditions: 25 ng/mL, 45 minutes
Description: FIGS. 6A-6D. UVR directly activates LC ADAM17 and EGFR ligand release. (6A, 6B) Effect of UVR on ADAM17 activity in sorted murine (6A) and human (6B) LCs as measured by change in TNFR1 mean fluorescence intensity (MFI) 45 minutes after the indicated treatments. PMA is a positive control. (n=5-6 mice; n=4 human donors). (6C,6D) Conditioned supernatants from murine (6C) or human LCs (6D) were added to A431 EGFR indicator cells and phosphoEGFR was measured 10 minutes later by flow cytometry. Murine LC supernatants were from (6A); human LC supernatants were from cells treated similarly to (6B), except that antibody was washed out prior to UVR (see Example 8). Left: Representative histogram. Right: Quantification relative to cells treated with control WT LC supernatants (6C) or control IgG-treated LC supernatants (6D). […]
To measure ADAM17 activity, we quantified the level of cell-surface tumor necrosis factor receptor 1 (TNFR1), a substrate for ADAM17 (31). […]
Sorted mouse LCs were plated in a 96-well plate at 20,000-25,000 cells/well in RPMI 1640 supplemented with L-glutamine, penicillin/streptomycin, and HEPES buffer. The cells were treated with phorbol 12-myristate 13-acetate (PMA) (Sigma-Aldrich) at 25 ng/mL or UVR (500 J/m2) and analyzed 45 minutes later. […] ADAM17 activity is expressed as the percent change in TNFR1 mean fluorescence intensity (MFI) relative to that of untreated LCs. […]

ADAM17 [3] = conditions: mouse embryonic fibroblasts; cited from earlier work
epithelial wound healing = conditions: used at 0.1 μg/ml; cited from earlier work

## C=CC(=O)Nc1ccc2ncnc(Nc3cccc(Br)c3)c2c1 [PD168393]
WT mice
  UVR-induced keratinocyte apoptosis and skin injury: increased
[1]
  protective effect of LCs against UVR-induced keratinocyte apoptosis: abolished the protective effect of LCs

## CCCCCCCCCCCCCC(=O)O[C@@H]1[C@@H](C)[C@@]2(O)[C@@H](C=C(CO)C[C@]3(O)C(=O)C(C)=C[C@@H]23)[C@@H]2C(C)(C)[C@]12OC(C)=O [PMA, phorbol 12-myristate 13-acetate]
ADAM17 [2]
  LC cell-surface TNFR1 (ADAM17 activity): reduced

## Lysophosphatidic acid [LPA, reference compound]
ADAM17 [3]
  ADAM17 activation: activated

## TGFα: EGFR ligand
Epithelial wound healing
  epithelial wound healing: enhance

## TNFα
ADAM17 [3]
  ADAM17 activation: activated

## Thrombin
ADAM17 [3]
  ADAM17 activation: activated
